# Experimental data from patent US20250170140A1, “PHARMACEUTICAL COMPOSITION FOR PREVENTING OR TREATING CANCER COMPRISING CARNITINE ACYLCARNITINE CARRIER INHIBITOR AND PEROXISOMAL BETA OXIDATION INHIBITOR” (priority 2021, published 2025).
# Test system: MIA PaCa-2
# Test: SRB assay, cancer cell growth, pancreatic cancer cell line MIA PaCa-2
# Type: cell-based
# Settings: MIA PaCa-2
# Procedure: As a comparison, omeprazole (KN510) and trimetazidine (KN713), a 3-ketoacyl CoA thiolase inhibitor, were co-treated. […] After cell inoculation, 96-well cell culture plates were incubated for 24 hours before the addition of experimental drugs. […] The cells were then incubated in a CO2 incubator for 48 hours, after which the assay was terminated by the addition of cold TCA. Cells were fixed in situ by gently adding 50 μl of cold 50% (w/v) TCA (final concentration: 10% TCA) and incubated at 4° C. for 60 min. The supernatant was discarded, and the plate was washed five times with distilled water and air dried. Sulforhodamine B (SRB) solution (100 μl) of 0.4% (w/v) in 1% acetic acid was added to each well, and the plate was left at room temperature for 10 min. After staining, unbound dye was removed by washing five times with 1% acetic acid, and the plate was air-dried. The bound dye was then solubilized with 10 mM trizma base, and the absorbance was recorded at 515 nm using an automated plate reader. […] The predicted synergistic activity of a combination of the present invention can be calculated using the Colby Equation in Equation 1 (S.R. Colby, Weeds, 1967, pp. 15, 20-22): α and β are the measured anti-cancer activity of each compound alone, and E is the predicted anti-cancer activity of a mixture of α and β as a prediction. In the present invention, the actual measure of anti-cancer activity of the combination treatment was the inhibition rate of cancer cell growth (%), and the predicted value (E) of the combination treatment was measured by substituting it into the above Colby Equation.
structure (smiles),measurement,setting,value
"COc1ccc(CN2CCNCC2)c(OC)c1OC [KN713, trimetazidine]",GI50,"Homo sapiens, 48 hours, read-out: GI50 (Half maximal growth inhibition concentration)",1810 µM
same,Cancer cell growth rate Average (%),"Conc. 10^−2M, Table 1",−29.68%
same,Cancer cell growth rate Average (%),"Conc. 10^−3M, Table 1",95.03%
same,Cancer cell growth rate Average (%),"Conc. 10^−4M, Table 1",95.50%
same,Cancer cell growth rate Average (%),"Conc. 10^−5M, Table 1",94.52%
same,Cancer cell growth rate Average (%),"Conc. 10^−6M, Table 1",97.75%
same,Cancer cell growth rate Average (%),"Conc. 10^−7M, Table 1",97.85%
same,Cancer cell growth rate Average (%),"comparative example, Table 3, KN713 2.5 mM",88.90%
